The test system of one data set is Peritoneal macrophage. As to the kind of experiment: Toxicity in Swiss mouse peritoneal macrophages assessed as LDH release at 10 uM after 60 mins relative to 0.05% Triton X-100. The class given is cell-based. Conditions: 1 h. (LDH in the medium is a marker of cell lysis.)
For data set [1], the target named is P2X purinoceptor 7 (Mus musculus) (UniProt Q9Z1M0). As to the kind of experiment: Antagonist activity at P2X7 receptor in Swiss mouse peritoneal macrophages assessed as inhibition of ATP-induced propidium iodide uptake at 10 uM after 30 mins by FLIPR assay relative to 1 mM ATP.
For data set [2], the target named is T1, P2X purinoceptor 7 (Homo sapiens) (UniProt Q99572).
T1 sequence (whole entry): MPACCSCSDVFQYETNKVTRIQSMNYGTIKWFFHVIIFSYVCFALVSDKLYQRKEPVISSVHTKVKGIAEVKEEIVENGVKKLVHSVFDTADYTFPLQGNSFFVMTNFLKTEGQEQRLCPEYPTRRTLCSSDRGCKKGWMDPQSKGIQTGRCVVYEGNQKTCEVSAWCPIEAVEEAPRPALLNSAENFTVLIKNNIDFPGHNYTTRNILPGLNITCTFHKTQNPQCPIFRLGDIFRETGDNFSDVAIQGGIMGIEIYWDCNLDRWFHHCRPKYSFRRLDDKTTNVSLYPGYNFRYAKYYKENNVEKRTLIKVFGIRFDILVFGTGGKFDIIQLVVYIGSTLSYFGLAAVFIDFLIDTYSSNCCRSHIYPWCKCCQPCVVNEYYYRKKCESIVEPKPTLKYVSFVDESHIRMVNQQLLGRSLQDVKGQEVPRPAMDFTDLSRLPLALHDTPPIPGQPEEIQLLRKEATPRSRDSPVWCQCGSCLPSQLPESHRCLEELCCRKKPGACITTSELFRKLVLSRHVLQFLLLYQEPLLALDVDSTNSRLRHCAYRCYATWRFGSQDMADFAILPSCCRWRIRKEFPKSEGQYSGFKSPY
Nature of the data set: Antagonist activity at human P2X7 receptor expressed in HEK293 cells assessed as inhibition of ATP-induced ethidium iodide uptake at 10 uM preincubated for 10 mins followed by ATP addition measured after 20 mins by FLIPR assay relative to 1 mM ATP. The format is cell-based.

The target of data set [3] is T2, P2X purinoceptor 7 (Mus musculus) (UniProt Q9Z1M0).
T2 sequence (whole entry): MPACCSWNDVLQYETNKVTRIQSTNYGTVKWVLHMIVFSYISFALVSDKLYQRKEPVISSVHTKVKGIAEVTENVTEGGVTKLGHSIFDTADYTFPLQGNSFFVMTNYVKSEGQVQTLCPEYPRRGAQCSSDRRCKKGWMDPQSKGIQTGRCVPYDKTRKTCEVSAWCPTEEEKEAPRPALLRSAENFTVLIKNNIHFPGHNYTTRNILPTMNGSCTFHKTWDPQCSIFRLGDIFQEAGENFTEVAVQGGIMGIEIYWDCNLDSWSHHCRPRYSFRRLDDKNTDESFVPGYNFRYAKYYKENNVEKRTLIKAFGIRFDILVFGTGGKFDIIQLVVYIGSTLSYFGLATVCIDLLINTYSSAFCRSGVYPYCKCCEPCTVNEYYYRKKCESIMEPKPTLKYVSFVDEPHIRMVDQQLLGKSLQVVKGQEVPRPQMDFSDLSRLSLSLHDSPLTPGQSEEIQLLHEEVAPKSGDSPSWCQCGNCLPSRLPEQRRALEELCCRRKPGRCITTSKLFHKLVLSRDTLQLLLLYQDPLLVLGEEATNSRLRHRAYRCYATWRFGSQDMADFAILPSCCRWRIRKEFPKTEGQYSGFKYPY
As to the kind of experiment: Antagonist activity at mouse P2X7 receptor expressed in HEK293 cells assessed as inhibition of ATP-induced ethidium iodide uptake at 10 uM preincubated for 10 mins followed by ATP addition measured after 20 mins by FLIPR assay relative to 1 mM ATP. The format is cell-based.

The source made the active and inactive calls. The calls are words filed in the database; no cut-off is given here.

What is called inhibition is the drop in the measured response relative to a control, in per cent.

Turning to `CCCCOCc1cn(-c2ccc(OC)cc2)nn1`, in the data set with Peritoneal macrophage, the Activity is 27.66%. The inhibition in data set [1] turned out to be 31.4%; in data set [2], 51.3%.

With `CC(=O)OCc1cn(-c2cc(Cl)cc(Cl)c2)nn1`, the Activity in the data set on Peritoneal macrophage came to 45.33%. The inhibition in data set [1] was 65.2%; in data set [2] it was 29.4%.

As to `O/N=C/c1cn(-c2cc(Cl)cc(Cl)c2)nn1`, in the data set with Peritoneal macrophage, the Activity was determined as 29.47%. Besides, the figures for the inhibition in data set [1] and in data set [2] were 58% and 62.1%, respectively.

In the case of `COc1ccc(-n2cc(C=O)nn2)cc1`, the Activity with Peritoneal macrophage was 17.92%. Further, the inhibition in data set [1] stood at 44.3%; in data set [2] it was 50.3%.

For the compound `O=C(OCc1cn(-c2ccccc2)nn1)c1ccccc1`, the Activity in the data set with Peritoneal macrophage came to 58.1%. Further, the inhibition in data set [1] was found to be 32.1%; in data set [2], 16.1%.

With `COc1ccc(-n2cc(COC(C)=O)nn2)cc1`, the Activity in the data set with Peritoneal macrophage is given as 15%. Besides, the inhibition in data set [1] amounted to 29.4%; in data set [2] it was 9.12%.

Regarding `CCOCc1cnn(-c2ccccc2)n1`, in the data set with Peritoneal macrophage, the Activity worked out at 26.49%. Besides, the figures for the inhibition in data set [1] and in data set [2] were 70% and 79.1%, respectively. Besides, in data set [3], the inhibition entry is “Active”.

Regarding `O=C(OCc1cn(-c2cc(Cl)ccc2Cl)nn1)c1ccccc1`, in the data set with Peritoneal macrophage, the Activity is on record as 26.66%. Also, the results for the inhibition in data set [1] and in data set [2] were 11% and 3%, respectively.

As to `CCCCCCCCCC(=O)OCc1cnn(-c2ccccc2)n1`, the Activity in the data set on Peritoneal macrophage was 42.5%. In addition, the inhibition is 29.5% in data set [1] and 19.2% in data set [2].

For `CCOCc1cn(-c2ccccc2)nn1`, the Activity in the data set on Peritoneal macrophage came out at 52.73%. Moreover, the inhibition in data set [1] was determined as 49.3%; in data set [2], 56.7%.

Turning to `O=C(OCc1cn(-c2cc(Cl)ccc2Cl)nn1)C1CCCC1`, the Activity with Peritoneal macrophage is 22.66%. In addition, the inhibition in data set [1] is 20.6%; in data set [2] it was 7.28%.

`O=Cc1cnn(-c2ccccc2)n1`: the Activity with Peritoneal macrophage turned out to be 41.65%. The inhibition was determined as 31.5% in data set [1] and 42.1% in data set [2].

`OCc1cn(-c2ccccc2)nn1`: the Activity in the data set with Peritoneal macrophage is listed as 20.98%. The inhibition was determined as 10.9% in data set [1] and 30.1% in data set [2].

As for `CCOCc1cn(-c2cc(Cl)ccc2Cl)nn1`, the Activity with Peritoneal macrophage came to 42.66%. Moreover, the figures for the inhibition in data set [1] and in data set [2] were 75.5% and 45.3%, respectively.

Regarding `CCCOCc1cn(-c2cc(Cl)cc(Cl)c2)nn1`, the Activity in the data set on Peritoneal macrophage is recorded as 14.03%. Also, the inhibition in data set [1] stood at 24%; in data set [2] it was 33.7%.

Consider `CCCCCC(=O)OCc1cn(-c2ccccc2)nn1`, for which, in the data set with Peritoneal macrophage, the Activity turned out to be 15.83%. In addition, the inhibition is 44.6% in data set [1] and 18.2% in data set [2].

As to `OCc1cn(-c2cc(Cl)cc(Cl)c2)nn1`, the Activity in the data set with Peritoneal macrophage came to 30.55%. The inhibition in data set [1] stood at 11.4%; in data set [2], 41.1%.

In the case of `CCCCCCCCCC(=O)OCc1cn(-c2ccccc2)nn1`, the Activity with Peritoneal macrophage worked out at 42.53%. The inhibition in data set [1] worked out at 60%; in data set [2], 23.2%.

`O=C(OCc1cn(-c2ccc(Cl)cc2)nn1)c1ccccc1`: the Activity in the data set with Peritoneal macrophage is listed as 45.73%. Moreover, the inhibition in data set [1] was 60.6%; in data set [2] it was 26.8%.

As for `O/N=C/c1cn(-c2ccccc2)nn1`, the Activity in the data set with Peritoneal macrophage is 28.59%. Besides, the values for the inhibition in data set [1] and in data set [2] were 58% and 64.3%, respectively.

`CC(=O)OCc1cn(-c2ccccc2)nn1`: the Activity with Peritoneal macrophage was determined as 36.39%. In addition, the inhibition in data set [1] worked out at 84%; in data set [2], 81%.

Turning to `CCCCOCc1cnn(-c2ccccc2)n1`, the Activity in the data set on Peritoneal macrophage amounted to 27.19%. Also, the inhibition is 37.1% in data set [1] and 16.1% in data set [2].

Turning to `O=Cc1cn(-c2cc(Cl)ccc2Cl)nn1`, the Activity with Peritoneal macrophage turned out to be 13.73%. The inhibition in data set [1] is 36.7%; in data set [2], 44%.

Consider `CCOCc1cn(-c2ccc(OC)cc2)nn1`, for which the Activity in the data set on Peritoneal macrophage is recorded as 20.66%. Also, the inhibition stood at 44.8% in data set [1] and 45% in data set [2].

In the case of `CCCOCc1cn(-c2ccc(OC)cc2)nn1`, the Activity with Peritoneal macrophage is 13.03%. Besides, the inhibition in data set [1] was 15.6%; in data set [2] it was 35.8%.

Turning to `CCCOCc1cn(-c2cc(Cl)ccc2Cl)nn1`, in the data set with Peritoneal macrophage, the Activity was 22.66%. Further, the figures for the inhibition in data set [1] and in data set [2] were 24% and 46.6%, respectively.

As to `O=C(OCc1cnn(-c2ccccc2)n1)c1ccccc1`, the Activity in the data set with Peritoneal macrophage is reported as 36.94%. Further, the inhibition worked out at 81.3% in data set [1] and 88.2% in data set [2].

In the case of `COc1ccc(-n2cc(COC(=O)c3ccccc3)nn2)cc1`, the Activity in the data set with Peritoneal macrophage was found to be 10.66%. The inhibition stood at 24.4% in data set [1] and 10.6% in data set [2].

For `O=C(OCc1cnn(-c2ccccc2)n1)C1CCCC1`, in the data set on Peritoneal macrophage, the Activity turned out to be 43.04%. For the same compound, the inhibition was 29.6% in data set [1] and 10.2% in data set [2].

In the case of `CCCOCc1cnn(-c2ccccc2)n1`, the Activity in the data set on Peritoneal macrophage is given as 13.33%. Further, the figures for the inhibition in data set [1] and in data set [2] were 26.6% and 41.2%, respectively.

On to `CCCCCC(=O)OCc1cn(-c2ccc(Cl)cc2)nn1`, for which, in the data set on Peritoneal macrophage, the Activity was 34.19%. The inhibition in data set [1] is 11.1%; in data set [2], 2.2%.

For the compound `CCCOCc1cn(-c2ccccc2)nn1`, in the data set with Peritoneal macrophage, the Activity came to 14.66%. Further, the figures for the inhibition in data set [1] and in data set [2] were 25.1% and 20.1%, respectively.

`CCCCC(=O)OCc1cn(-c2ccc(OC)cc2)nn1`: the Activity with Peritoneal macrophage amounted to 46.3%. In addition, the inhibition in data set [2] came to 8.15%.

Consider `CCCCCCCCCC(=O)OCc1cn(-c2cc(Cl)ccc2Cl)nn1`, for which the Activity with Peritoneal macrophage was 10%. The inhibition in data set [1] amounted to 9.86%; in data set [2], 1.17%.

As for `CCCCOCc1cn(-c2ccccc2)nn1`, the Activity with Peritoneal macrophage came out at 32.33%. Besides, the inhibition was 78.1% in data set [1] and 67.5% in data set [2]. For the same compound, the inhibition entry in data set [3] was “Active”.

With `CC(=O)OCc1cn(-c2ccc(Cl)cc2)nn1`, the Activity in the data set with Peritoneal macrophage is reported as 19.66%. Further, the results for the inhibition in data set [1] and in data set [2] were 23.2% and 9.89%, respectively.

On to `O=C(OCc1cn(-c2cc(Cl)cc(Cl)c2)nn1)c1ccccc1`, for which the Activity in the data set with Peritoneal macrophage came to 24.02%. Further, the results for the inhibition in data set [1] and in data set [2] were 14.2% and 2.96%, respectively.

As for `OCc1cn(-c2ccc(Cl)cc2)nn1`, the Activity in the data set with Peritoneal macrophage is listed as 15.57%. Also, the inhibition in data set [1] worked out at 22.5%; in data set [2] it was 26.1%.

Take `CCCCOCc1cn(-c2ccc(Cl)cc2)nn1`: the Activity in the data set with Peritoneal macrophage was determined as 30.33%. Further, the inhibition in data set [1] is 35.8%; in data set [2] it was 15.1%.

For `CCOCc1cn(-c2cc(Cl)cc(Cl)c2)nn1`, in the data set with Peritoneal macrophage, the Activity was found to be 34%. Moreover, the inhibition in data set [1] was 36.5%; in data set [2] it was 51.2%.

Regarding `CCCOCc1cn(-c2ccc(Cl)cc2)nn1`, the Activity in the data set on Peritoneal macrophage is reported as 26.66%. Also, the inhibition in data set [1] was 32.5%; in data set [2], 62.4%.

For `OCc1cn(-c2cc(Cl)ccc2Cl)nn1`, the Activity with Peritoneal macrophage stood at 12.09%. Also, the inhibition came out at 28.3% in data set [1] and 38.1% in data set [2].

Take `CC(=O)OCc1cn(-c2cc(Cl)ccc2Cl)nn1`: in the data set on Peritoneal macrophage, the Activity stood at 32%. In addition, the inhibition in data set [1] was determined as 76.6%; in data set [2] it was 71.2%.

Consider `CC(=O)OCc1cnn(-c2ccccc2)n1`, for which the Activity in the data set on Peritoneal macrophage came out at 38.5%. The inhibition in data set [1] was found to be 73.5%; in data set [2] it was 80.1%.

Source of the values: ChEMBL document CHEMBL4130413, “1-Aryl-1H- and 2-aryl-2H-1,2,3-triazole derivatives blockade P2X7 receptor in vitro and inflammatory response in vivo” (Eur J Med Chem, 2017).
